Test results from US12479827B2, “Heteroaromatic carboxamide derivatives as plasma kallikrein inhibitors” (Boehringer Ingelheim International GmbH, priority 2020, dated 2025).

Assays:
Human PKK = target: T1, Human PKK (Homo sapiens, UniProt P03952); assay: Inhibition of PKK using an endpoint assay (human PKK); format: biochemical; conditions: fluorogenic substrate H-Pro-Phe-Arg-AMC, 1 h room temperature, method names human or rat PKK, table does not say which
T1 construct: purchased Enzyme Research Laboratories
Outline: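 Human PKK inhibition measured in 100 mM Tris, 150 mM NaCl, pH 7.8, 0.1% BSA, 0.05% Tween20, 1% DMSO. Endpoint format: reaction stopped with PPACK II at 1 μM final, fluorescence read at 355 nm excitation/460 nm emission.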

[1] = target: T2, PKK in kaolin activated human platelet poor plasma (Homo sapiens, UniProt P03952); assay: Inhibition of PKK in kaolin activated human PPP; format: biochemical; conditions: 25-750 μg/mL kaolin, global fit, text b200 calls the values IC90;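 note: readout is the rate of fluorogenic substrate cleavage in rfu per min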
T2 construct: Platelet poor plasma (PPP) obtained from human wholeblood; from tissue
Protocol: Platelet poor plasma (PPP) obtained from human wholeblood, anticoagulated with Na-Citrate, is incubated with various concentrations of the test compound together with either 25, 75, 250, or 750 μg/mL kaolin in assay buffer for 20 min at 37° C. such that for each kaolin dose used a concentration response is obtained for the test compound.

T2 sequence (P03952 391-638 limits assumed): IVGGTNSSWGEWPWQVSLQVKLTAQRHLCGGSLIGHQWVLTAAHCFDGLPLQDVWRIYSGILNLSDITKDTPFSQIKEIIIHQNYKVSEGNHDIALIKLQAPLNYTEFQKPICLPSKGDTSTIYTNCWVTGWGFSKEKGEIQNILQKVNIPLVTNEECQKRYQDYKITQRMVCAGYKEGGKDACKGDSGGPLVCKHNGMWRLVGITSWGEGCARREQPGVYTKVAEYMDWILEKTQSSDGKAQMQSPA
T2 sequence (P03952 20-390 limits assumed): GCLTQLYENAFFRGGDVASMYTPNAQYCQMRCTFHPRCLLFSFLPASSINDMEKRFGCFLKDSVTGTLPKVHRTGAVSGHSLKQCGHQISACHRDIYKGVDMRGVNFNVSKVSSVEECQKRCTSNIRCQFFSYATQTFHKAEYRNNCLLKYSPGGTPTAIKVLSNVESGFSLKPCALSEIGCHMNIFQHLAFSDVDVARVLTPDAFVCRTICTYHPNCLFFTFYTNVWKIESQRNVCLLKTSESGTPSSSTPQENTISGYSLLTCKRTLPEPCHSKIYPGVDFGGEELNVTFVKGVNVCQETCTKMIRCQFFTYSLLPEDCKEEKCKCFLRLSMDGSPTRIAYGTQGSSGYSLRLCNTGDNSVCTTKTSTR
T1 sequence (P03952 20-390 limits assumed): as above
T1 sequence (P03952 391-638 limits assumed): as the sequence (P03952 391-638 limits assumed) above

Compound	IC50 (Human PKK) [µM]	IC50 [1] [µM]
CCc1nc(N2C[C@@H]3[C@H](C)[C@@H]3C2)ccc1Cn1cnc(C(=O)N[C@@H]2CCc3c2ncn3C)c1 [Example 143, 1-({2-Ethyl-6-[(1R,5S,6R)-6-methyl-3-azabicyclo[3.1.0]hexan-3-yl]pyridin-3-yl}methyl)-N-[(4R)-1-methyl-1H,4H,5H,6H-cyclopenta-[d]imidazol-4-yl]-1H-imidazole-4-carboxamide]	0.0006	1.17
Cn1cnc2c1CC[C@H]2NC(=O)c1cc(Cc2ccc(N3CC4CC4C3)nc2C(F)F)no1 (stereo partly drawn) [Example 144, 3-[(6-{3-Azabicyclo[3.1.0]hexan-3-yl}-2-(difluoromethyl)pyridin-3-yl)methyl]-N-[(4R)-1-methyl-1H,4H,5H,6H-cyclopenta[d]imidazol-4-yl]-1,2-oxazole-5-carboxamide]	0.0008	0.248
Cn1cnc2c1CC[C@H]2NC(=O)c1cc(Cc2ccc(N3CC4C(C3)C4(F)F)nc2C(F)F)no1 (stereo partly drawn) [Example 145, 3-[(6-{6,6-Difluoro-3-azabicyclo[3.1.0]hexan-3-yl}-2-(difluoromethyl)pyridin-3-yl)methyl]-N-[(4R)-1-methyl-1H,4H,5H,6H-cyclopenta-[d]imidazol-4-yl]-1,2-oxazole-5-carboxamide]	0.0007	0.245
Cn1cnc2c1CC[C@H]2NC(=O)c1cc(Cc2ccc(N3CC4C(C3)C4(F)F)nc2CO)no1 (stereo partly drawn) [Example 147, 3-[(6-{6,6-Difluoro-3-azabicyclo[3.1.0]hexan-3-yl}-2-(hydroxymethyl)pyridin-3-yl)methyl]-N-[(4R)-1-methyl-1H,4H,5H,6H-cyclopenta-[d]imidazol-4-yl]-1,2-oxazole-5-carboxamide]	0.0014	0.149
Cn1cnc2c1CC[C@H]2NC(=O)c1cc(Cc2ccc(N3CC4CC4C3)nc2CO)no1 (stereo partly drawn) [Example 149, 3-[(6-{3-Azabicyclo[3.1.0]hexan-3-yl}-2-(hydroxymethyl)pyridin-3-yl)methyl]-N-[(4R)-1-methyl-1H,4H,5H,6H-cyclopenta[d]imidazol-4-yl]-1,2-oxazole-5-carboxamide]	0.0016	0.511
Cn1cnc2c1CC[C@H]2NC(=O)c1cc(Cc2ccc(N3CC4C(C3)C4(F)F)nc2Cl)no1 (stereo partly drawn) [Example 150, 3-[(2-Chloro-6-{6,6-difluoro-3-azabicyclo[3.1.0]hexan-3-yl}pyridin-3-yl)methyl]-N-[(4R)-1-methyl-1H,4H,5H,6H-cyclopenta-[d]imidazol-4-yl]-1,2-oxazole-5-carboxamide]	0.001	0.373
Cn1cnc2c1CC[C@H]2NC(=O)c1cc(Cc2ccc(N3CC4CC4C3)nc2)no1 (stereo partly drawn) [Example 151, 3-[(6-{3-Azabicyclo[3.1.0]hexan-3-yl}pyridin-3-yl)methyl]-N-[(4R)-1-methyl-1H,4H,5H,6H-cyclopenta[d]imidazol-4-yl]-1,2-oxazole-5-carboxamide]	0.0036	1.14
Cc1nc(N2CC3C(C2)C3(F)F)ccc1Cc1cc(C(=O)N[C@@H]2CCc3c2ncn3C)on1 (stereo partly drawn) [Example 152, 3-[(6-{6,6-Difluoro-3-azabicyclo[3.1.0]hexan-3-yl}-2-methylpyridin-3-yl)methyl]-N-[(4R)-1-methyl-1H,4H,5H,6H-cyclopenta[d]imidazol-4-yl]-1,2-oxazole-5-carboxamide]	0.0012	0.43
Cc1nc(N2CC3CC3C2)ccc1Cc1ncc(C(=O)N[C@@H]2CCc3c2ncn3C)o1 (stereo partly drawn) [Example 154, 2-[(6-{3-Azabicyclo[3.1.0]hexan-3-yl}-2-methylpyridin-3-yl)methyl]-N-[(4R)-1-methyl-1H,4H,5H,6H-cyclopenta[d]imidazol-4-yl]-1,3-oxazole-5-carboxamide]	0.0099	4.27
CCc1nc(N2CC3C(C2)C3(F)F)ccc1Cc1cc(C(=O)N[C@@H]2CCc3c2ncn3C)n(CC)n1 (stereo partly drawn) [Example 161, 3-[(6-{6,6-Difluoro-3-azabicyclo[3.1.0]hexan-3-yl}-2-ethylpyridin-3-yl)methyl]-1-ethyl-N-[(4R)-1-methyl-1H,4H,5H,6H-cyclopenta[d]imidazol-4-yl]-1H-pyrazole-5-carboxamide]	0.0015	0.431
CCn1nc(Cc2ccc(N3CC4CC4C3)nc2C)cc1C(=O)N[C@@H]1CCc2c1ncn2C (stereo partly drawn) [Example 164, 3-[(6-{3-Azabicyclo[3.1.0]hexan-3-yl}-2-methylpyridin-3-yl)methyl]-1-ethyl-N-[(4R)-1-methyl-1H,4H,5H,6H-cyclopenta[d]imidazol-4-yl]-1H-pyrazole-5-carboxamide]	0.0018	0.443
CCc1nc(N2CC3CC3C2)ccc1Cc1cc(C(=O)N[C@@H]2CCc3c2ncn3C)[nH]n1 (stereo partly drawn) [Example 165, 3-[(6-{3-Azabicyclo[3.1.0]hexan-3-yl}-2-ethylpyridin-3-yl)methyl]-N-[(4R)-1-methyl-1H,4H,5H,6H-cyclopenta[d]imidazol-4-yl]-1H-pyrazole-5-carboxamide]	0.0008	0.342

Further compounds by falling IC50 (Human PKK), results first:

IC50 (Human PKK) [µM]	IC50 [1] [µM]	Compound
0.0154	4.1	Cc1nc(N2CC3C(C2)C3(F)F)ccc1Cc1ncc(C(=O)N[C@@H]2CCc3c2ncn3C)o1 (stereo partly drawn) [Example 155, 2-[(6-{6,6-Difluoro-3-azabicyclo[3.1.0]hexan-3-yl}-2-methylpyridin-3-yl)methyl]-N-[(4R)-1-methyl-1H,4H,5H,6H-cyclopenta[d]imidazol-4-yl]-1,3-oxazole-5-carboxamide]
0.0058	0.731	Cc1nc(N2CC3C(C2)C3(F)F)ccc1Cc1cc(C(=O)N[C@@H]2CCc3c2ncn3C)c[nH]1 (stereo partly drawn) [Example 142, 5-[(6-{6,6-Difluoro-3-azabicyclo[3.1.0]hexan-3-yl}-2-methylpyridin-3-yl)methyl]-N-[(4R)-1-methyl-1H,4H,5H,6H-cyclopenta[d]imidazol-4-yl]-1H-pyrrole-3-carboxamide]
0.0046	2.1	CCc1nc(N2CC3CC3C2)ccc1Cc1ncc(C(=O)N[C@@H]2CCc3c2ncn3C)o1 (stereo partly drawn) [Example 158, 2-[(6-{3-Azabicyclo[3.1.0]hexan-3-yl}-2-ethylpyridin-3-yl)methyl]-N-[(4R)-1-methyl-1H,4H,5H,6H-cyclopenta[d]imidazol-4-yl]-1,3-oxazole-5-carboxamide]
0.0035	1.14	Cn1cnc2c1CC[C@H]2NC(=O)c1c[nH]c(Cc2ccc(N3CC4C(C3)C4(F)F)nc2Cl)c1 (stereo partly drawn) [Example 159, 5-[(2-Chloro-6-{6,6-difluoro-3-azabicyclo-[3.1.0]hexan-3-yl}pyridin-3-yl)methyl]-N-[(4R)-1-methyl-1H,4H,5H,6H-cyclopenta[d]imidazol-4-yl]-1H-pyrrole-3-carboxamide]
0.0022	0.967	CCc1nc(N2CC3C(C2)C3(F)F)ccc1Cc1cc(C(=O)N[C@@H]2CCc3c2ncn3C)n(C(C)C)n1 (stereo partly drawn) [Example 160, 3-[(6-{6,6-Difluoro-3-azabicyclo[3.1.0]hexan-3-yl}-2-ethylpyridin-3-yl)methyl]-N-[(4R)-1-methyl-1H,4H,5H,6H-cyclopenta[d]imidazol-4-yl]-1-(propan-2-yl)-1H-pyrazole-5-carboxamide]
0.0022	0.47	CCn1nc(Cc2ccc(N3CC4C(C3)C4(F)F)nc2C)cc1C(=O)N[C@@H]1CCc2c1ncn2C (stereo partly drawn) [Example 163, 3-[(6-{6,6-Difluoro-3-azabicyclo[3.1.0]hexan-3-yl}-2-methylpyridin-3-yl)methyl]-1-ethyl-N-[(4R)-1-methyl-1H,4H,5H,6H-cyclopenta[d]imidazol-4-yl]-1H-pyrazole-5-carboxamide]
0.0014	0.985	Cn1cnc2c1CC[C@H]2NC(=O)c1cc(Cc2ccc(N3CC4CC4C3)nc2Cl)no1 (stereo partly drawn) [Example 148, 3-[(6-{3-Azabicyclo[3.1.0]hexan-3-yl}-2-chloropyridin-3-yl)methyl]-N-[(4R)-1-methyl-1H,4H,5H,6H-cyclopenta[d]imidazol-4-yl]-1,2-oxazole-5-carboxamide]
0.0011	0.274	CCc1nc(N2CC3CC3C2)ccc1Cc1cc(C(=O)N[C@@H]2CCc3c2ncn3C)on1 (stereo partly drawn) [Example 146, 3-[(6-{3-Azabicyclo[3.1.0]hexan-3-yl}-2-ethylpyridin-3-yl)methyl]-N-[(4R)-1-methyl-1H,4H,5H,6H-cyclopenta[d]imidazol-4-yl]-1,2-oxazole-5-carboxamide]
0.0011	0.231	CCc1nc(N2CC3CC3C2)ccc1Cc1cc(C(=O)N[C@@H]2CCc3c2ncn3C)n(CC)n1 (stereo partly drawn) [Example 162, 3-[(6-{3-Azabicyclo[3.1.0]hexan-3-yl}-2-ethylpyridin-3-yl)methyl]-1-ethyl-N-[(4R)-1-methyl-1H,4H,5H,6H-cyclopenta[d]imidazol-4-yl]-1H-pyrazole-5-carboxamide]
0.001	0.193	CCc1nc(N2CC3CC3C2)ccc1Cc1cc(C(=O)N[C@@H]2CCc3c2ncn3C)n(C)n1 (stereo partly drawn) [Example 166, 3-[(6-{3-Azabicyclo[3.1.0]hexan-3-yl}-2-ethylpyridin-3-yl)methyl]-1-methyl-N-[(4R)-1-methyl-1H,4H,5H,6H-cyclopenta[d]imidazol-4-yl]-1H-pyrazole-5-carboxamide]
0.0005	0.28	CCc1nc(N2CC3C(C2)C3(F)F)ccc1Cc1cc(C(=O)N[C@@H]2CCc3c2ncn3C)on1 (stereo partly drawn) [Example 153, 3-[(6-{6,6-Difluoro-3-azabicyclo[3.1.0]hexan-3-yl}-2-ethylpyridin-3-yl)methyl]-N-[(4R)-1-methyl-1H,4H,5H,6H-cyclopenta[d]imidazol-4-yl]-1,2-oxazole-5-carboxamide]
